The test system of one test is antibodies against HIV-1. Description: Specificity ELISA (Example 12, Figure 3), HIV-1 antibody positive sera. The test is classed as binding, human. The note with it: 20 sera with antibodies against HIV-1; positive O.D. above 0.150. An excerpt: (§1) In the Figures forming a portion of the disclosure of this invention: • Figure 1 illustrates a portion of the STLV-IIImac TMP amino acid residue sequence. The sequence is shown from left to right and in the direction of amino-terminus to carboxy-terminus in a single-letter code. The residue positions have been numbered as illustrated from 1-33. • Figure 2 illustrates, in a manner similar to Figure 1, a portion of the amino acid residue sequence of the HIV-1 TMP and represent gp41 amino acid residues […] as described in Ratner et al., Nature, 313:277-283 (1985). However, for ease of discussion, those residue positions have been renumbered as illustrated from 1-32. • Figure 3 contains 2 panels illustrating antibody determinations using a diagnostic system of this invention to assay (a) 20 sera from individuals in Guinea-Bissau previously determined to have antibodies against HIV-related viruses (West Africans), (b) 20 sera from HIV-1-infected individuals and (c) 20 sera from blood donors without antibodies to HIV-1 or HIV-2. Sera were considered positive (closed symbols) when they produced optical density (O.D.) values above 0.150 (the mean O.D. of negative samples plus 6 standard deviations). Negative sera are represented by open symbols. […]
Background: ELISA stands for enzyme-linked immunosorbent assay.

Test [1] concerns sera from Swedish blood donors negative for HIV-1 and HIV-2 antibodies. Description: Specificity ELISA (Example 12, Figure 3), negative control sera. The conditions noted are these: 20 negative control sera; positive O.D. above 0.150. The test is classed as binding, human.
Excerpt: as §1

Consider AIEKYLEDQAQLNAWCAFRQVC [p80], for which the immunoreaction with sera entry in the test on antibodies against HIV-1 is on record as “with one exception, produced no substantial immunoreaction”; in test [1] it was “did not produce any substantial immunoreaction”.

Values taken from patent publication EP0309566B1, “STLV-III-RELATED POLYPEPTIDES, DIAGNOSTIC SYSTEMS AND ASSAY METHODS” (JOHNSON AND JOHNSON, priority 1987, dated 1994).
